Consider seven compounds from ChEMBL document CHEMBL5107984, “The untapped potential of spermidine alkaloids: Sources, structures, bioactivities and syntheses” (Eur J Med Chem, 2022).

Each structure is given as a SMILES string.

What is called Ki is the dissociation constant of the complex between target and ligand, obtained from inhibition or displacement. A higher Ki goes with lower affinity. For orientation: inhibition means the relative decrease from the control value, in per cent. A low value points to a weak effect. A word on the IC50: it is the point on the concentration scale where inhibition reaches its midpoint.

Assay [1] relates to SARS-CoV-2. As to the kind of experiment: Antiviral activity against SARS-CoV-2. In kind it is functional, Severe acute respiratory syndrome coronavirus 2.
The target of assay [2] is Cholesterol 24-hydroxylase (Homo sapiens, UniProt Q9Y6A2). As to the kind of experiment: Inhibition of CYP46A1 (unknown origin). The format is ADME.
A short description of assay [3]: Antioxidant activity assessed as trolox equivalent of ORAC radical scavenging activity by ORAC assay. In kind it is functional.
Assay [4] deals with Cholinesterase (Homo sapiens) (UniProt P06276). Briefly: Inhibition of human BChE at 800 uM using butyrylthiocholine iodide as substrate incubated for 10 mins by Ellman's method. A general note: In Ellman's method for cholinesterases, released thiocholine reacts with DTNB.
The nature of assay [5]: Inhibition of 5HT uptake in Sprague-Dawley rat brain Synaptosome. The format is subcellular.
Assay [6] has as its target Sodium-dependent serotonin transporter (Rattus norvegicus, UniProt P31652). Briefly: Displacement of [3H]-5HT from rat SERT expressed in CHO cells incubated for 20 mins by liquid scintillation analysis. The format is cell-based. Background: Displacement assays read how much labelled ligand stays bound in the presence of the test substance.

Chain of Cholesterol 24-hydroxylase (Q9Y6A2 whole entry): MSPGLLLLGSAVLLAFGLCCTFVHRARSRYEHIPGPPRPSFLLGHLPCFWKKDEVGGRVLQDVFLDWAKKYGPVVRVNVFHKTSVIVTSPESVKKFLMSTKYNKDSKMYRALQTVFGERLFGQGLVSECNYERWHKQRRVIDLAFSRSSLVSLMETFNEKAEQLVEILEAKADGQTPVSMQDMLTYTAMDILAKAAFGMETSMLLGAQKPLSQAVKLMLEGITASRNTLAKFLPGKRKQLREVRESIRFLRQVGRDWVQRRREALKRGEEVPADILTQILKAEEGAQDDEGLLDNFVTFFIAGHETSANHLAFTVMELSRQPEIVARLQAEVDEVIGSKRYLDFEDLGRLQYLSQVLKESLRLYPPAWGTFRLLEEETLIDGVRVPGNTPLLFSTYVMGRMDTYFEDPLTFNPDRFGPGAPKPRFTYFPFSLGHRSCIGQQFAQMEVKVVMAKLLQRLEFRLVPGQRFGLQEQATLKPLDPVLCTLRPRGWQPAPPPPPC
Chain of Cholinesterase (Homo sapiens) (P06276 whole entry): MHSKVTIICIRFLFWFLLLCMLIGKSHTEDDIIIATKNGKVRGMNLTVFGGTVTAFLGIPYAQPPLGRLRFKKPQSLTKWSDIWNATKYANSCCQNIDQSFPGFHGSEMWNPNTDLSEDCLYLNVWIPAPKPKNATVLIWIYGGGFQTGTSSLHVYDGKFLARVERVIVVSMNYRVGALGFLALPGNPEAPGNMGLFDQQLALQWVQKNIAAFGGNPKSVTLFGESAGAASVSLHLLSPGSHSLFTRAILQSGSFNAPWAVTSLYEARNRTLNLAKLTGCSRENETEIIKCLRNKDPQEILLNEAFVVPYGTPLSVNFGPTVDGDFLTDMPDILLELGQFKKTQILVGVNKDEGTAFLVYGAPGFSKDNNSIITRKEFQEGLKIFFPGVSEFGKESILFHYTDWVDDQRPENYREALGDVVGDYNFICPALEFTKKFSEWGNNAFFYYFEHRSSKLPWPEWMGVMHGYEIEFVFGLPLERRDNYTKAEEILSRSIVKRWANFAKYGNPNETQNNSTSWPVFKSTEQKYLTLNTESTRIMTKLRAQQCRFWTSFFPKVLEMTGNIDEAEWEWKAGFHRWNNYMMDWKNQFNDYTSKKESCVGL
Chain of Sodium-dependent serotonin transporter (P31652 whole entry): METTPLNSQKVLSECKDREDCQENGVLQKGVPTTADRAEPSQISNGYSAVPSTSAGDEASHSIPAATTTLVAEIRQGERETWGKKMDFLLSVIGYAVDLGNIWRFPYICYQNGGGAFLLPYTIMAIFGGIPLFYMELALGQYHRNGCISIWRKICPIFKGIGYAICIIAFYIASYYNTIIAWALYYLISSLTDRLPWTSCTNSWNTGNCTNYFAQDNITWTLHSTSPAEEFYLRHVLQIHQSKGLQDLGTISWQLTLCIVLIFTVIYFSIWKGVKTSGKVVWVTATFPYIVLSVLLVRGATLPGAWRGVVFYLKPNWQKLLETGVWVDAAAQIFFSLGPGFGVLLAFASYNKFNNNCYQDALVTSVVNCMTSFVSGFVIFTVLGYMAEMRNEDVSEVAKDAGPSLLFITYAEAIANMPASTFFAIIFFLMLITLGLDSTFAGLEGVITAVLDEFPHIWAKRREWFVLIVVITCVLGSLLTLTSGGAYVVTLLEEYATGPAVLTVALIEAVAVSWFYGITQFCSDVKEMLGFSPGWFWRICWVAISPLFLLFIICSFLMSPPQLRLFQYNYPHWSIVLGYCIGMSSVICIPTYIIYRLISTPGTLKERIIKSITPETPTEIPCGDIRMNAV

Take `NCCCCNCCCN` [SPERMIDINE]: the “inhibition (INH)” value in assay [1] was found to be 85%.

`O=C(/C=C/c1ccc(O)c(O[C@@H]2O[C@H](CO)[C@@H](O)[C@H](O)[C@H]2O)c1)NCCCNCCCCNC(=O)CCc1ccc(O)c(O)c1` displayed an inhibition constant (Ki) in assay [2] of 12.9 nM. That is a double-digit nanomolar value.

`O=C(/C=C/c1ccc(O[C@@H]2O[C@H](CO)[C@@H](O)[C@H](O)[C@H]2O)c(O)c1)NCCCNCCCCNC(=O)CCc1ccc(O)c(O)c1` returned an inhibition constant Ki in assay [2] of 106 nM.

For `O=C(/C=C/c1ccc(O)c(O)c1)NCCCNCCCCNC(=O)CCc1ccc(O[C@@H]2O[C@H](CO)[C@@H](O)[C@H](O)[C@H]2O)c(O)c1`, the inhibition constant (Ki) in assay [2] turned out to be 258 nM.

Consider `O=C1CCc2cc(O)c(O)cc2[C@@H](c2ccc(O)c(O)c2)CC(=O)NCCCCNCCCN1`, for which the Activity in assay [3] was found to be 2.68 µM. Besides, the inhibition in assay [4] turned out to be 37.8%.

For `O=C(/C=C/c1ccc(O)cc1)NCCCCN(CCCNC(=O)/C=C/c1ccc(O)cc1)C(=O)/C=C\c1ccc(O)cc1`, the 50% inhibitory concentration (IC50) is 1070 nM in assay [5] and 740 nM in assay [6].

As to `O=C1CCc2cc(O)c(O)cc2[C@H](c2ccc(O)c(O)c2)CC(=O)NCCCCNCCCN1`, the Activity in assay [3] came to 2.37 µM. Moreover, the inhibition in assay [4] stood at 18.1%.
